The values below come from patent US8858952B2, “Methods and materials for generating T cells” (Mayo Foundation for Medical Education and Research, priority 2009, dated 2014).

The subject of one assay is FR74-specific T cells. Description: IFN-γ ELIspot of T cell cultures generated ex vivo with polypeptide-pulsed DC. It is filed as cell-based, FVB/N mice. The procedure:
FIG. 4 is a graph plotting the results an IFN-γ ELIspot analyses of T cell cultures incubated with the indicated polypeptides. Epitope nesting greatly augments the numbers of antigen-specific T cells. T cells were tested in ELIspot against native FR74 polypeptide at various concentrations. Each data point is the mean of 3 determinations.
FIG. 6. FR74-specific T cells generated with modified polypeptides recognized tumor lysates. […] Each bar is the mean (±s.e.m.) of 3 replicates.
FIG. 7. […] The T cells were generated at varying concentrations of polypeptides (x-axis). Each point is the mean (±s.e.m.) of 3 replicates.
In terms of proliferation, only the dual modified polypeptide was able to generate T cells that were able to proliferate at 10^−9 g/mL (FIG. 5).
In order to determine whether furin cleavage is required, two methods are used: furin insensitive linkers and furin inhibitors. Blockade of enhanced ex vivo expansion mediated by the DC3 peptide using these two methods is powerful evidence, outside of a furin knockout mouse, that furin is required for the actions of DC3. Although it has already been shown that DC3 must be linked to antigen, as a control T cells are expanded using free FR74 mixed with free DC3. To test the role of furin with furin-insensitive linkers, RARR (SEQ ID NO:4) is replaced with VRVV (SEQ ID NO:41) with the polypeptides FR74.1, FR74.3, and FR74.8 as shown in FIG. 17. In parallel with these cultures, cultures are included in which inhibitors are included. The stoichiometric peptidyl inhibitor decanoyl-Arg-Val-Lys-Arg-CH2CL (SEQ ID NO:42) and α1-antitrypsin Portland, which are the two most commonly used inhibitors, are employed. […] Cultures are examined over a range of concentrations of inhibitors and assayed as described with ELIspot and proliferation assays. To generate Th cells, CD4^+ T cells are purified by incubation of splenocytes with anti-CD4^+ MACS microbeads (Miltenyi, Auburn, Calif.) for 20 minutes at 4° C., followed by positive selection of CD4^+ T cells using an AutoMACS automatic magnetic cell sorter according to the manufacturer's specifications. Th cell lines are established with bone marrow derived DC at a concentration of 5×10^4 T cells/mL in 24-well tissue culture-treated plates in complete medium on day 0. To derive the dendritic cells (DCs), bone marrow is harvested from the long bones of FVB/N mice and seeded in 6-well plates (3×10^6/well) in complete media with murine GM-CSF (10 ng/mL) and IL-4 (1 ng/mL). Media and cytokines are replaced after 3 days. On day 5, CPG is added to the cultures at 1 μg/mL, and the cells are ready for T cell induction on day 6. The tissue culture-generated DC are pulsed with 10 μg/mL FR74 peptide or its modifications and 10 μg/mL B7DC-crosslinking antibody at 37° C. for 4 hours. In these experiments, constant mass is maintained. Next, the peptide-loaded DC are washed with media, and the CD4+ T cells are added, and on days 8 and 10, IL-2 (50 U/mL) is added. On day 15, cells are assayed. For the ELIspot analysis, anti-IFN-γ (Pharmingen) antibody is added to a 96-well nitrocellulose-backed plate (NC-plate, Millipore) at 50 μL/well at a concentration of 10 μg/mL in PBS and incubated overnight at 4° C. The day of analysis, the NC-plate is washed with PBS and blocked for 1-2 hours at 37° C. with PBS/2%BSA. After blocking, the plate are again washed. The Th cells are transferred to the antibody-coated plates. Syngeneic naïve CD4 T cells alone without peptide antigen are used as the negative control. Th cells are seeded at 5×10^4 cells/well with a range of native (i.e., FR74) peptide, irrelevant peptide, FRαMMC tumor lysate, irrelevant tumor lysate, media or concanavalin A. Irradiated syngeneic splenocytes are added at 1 ×10^5 cells/well as antigen-presenting cells. The plate is incubated at 37° C. for 24 hours. The plate are washed with PBS/0.05% Tween-20, and 100 μL/well biotinylated anti-IFN-γ(5 μg/mL, Pharmingen) antibody are added to each well. […]

Another assay concerns splenocytes. Description: Immunization with polypeptide-pulsed DC, splenocyte proliferation. It is filed as in vivo, FVB/N mice. Particulars: DC pulsed 2 hours; splenocytes at 1 week; FIG. 30. The procedure:
FIG. 30. DC pulsed with modified polypeptides are more immunogenic than FR74-pulsed DC. […] Control=DC pulsed with media.
Alternatively, the strategies developed herein can be applied to other fields of immunotherapy. […] In that experiment, bone-marrow derived DC were pulsed with either PBS, FR74 peptide, or FR74.4 peptide for 2 hours. The DC were washed and injected into FVB/N mice.

Where no end group is shown, it is not given here. [ ]: non-standard residue; d: D form. Ava = NCCCCC(=O)O

On to “FR74.4: dual conjugated polypeptide: FR74 nested between Ii-key and DC3 (Ac-LRMK[Ava]KDISYLYRFNWNHCGRARRFYPSYHSTPQRP)”, for which the “response of generated T cells to naturally processed antigen” value with FR74-specific T cells (DC pulsed with FRα-expressing tumor cells, FIG. 6) is “retain the capability to respond to naturally processed antigen”. The “lowest peptide concentration at which generated T cells respond” value in the assay on FR74-specific T cells (IFN-γ ELIspot against native FR74, FIG. 4) is 10^−9 g/mL. Further, the “ex vivo generation of FR74-specific T cells under equal molar amounts” value with FR74-specific T cells (equal molarity, FIG. 7) was “superior ex vivo generation of FR74-specific T cells relative to the native polypeptide”. The “generation of FR74-specific T cells” value with FR74-specific T cells (within 12 days of culture, compared to controls, equal masses, FIG. 4) was “T cell reactivity greater than either modification alone”. Moreover, the “splenocyte proliferation in response to native FR74 antigen after DC immunization” value in the assay on splenocytes is listed as “significantly elevated proliferative response”.
